Experimental data taken from US20240299266A1, “FRAGRANCE COMPOSITIONS WITH MOISTURIZING BENEFITS” (Firmenich SA, priority 2021, published 2024).
“Also recorded” adds a separate entry of the source.

Test: TEWL (trans-epidermal water loss) measurement on in-vitro skin model
Details: 50 μL applied on hydrated artificial skin membrane on a Franz Cell, Vapometer, TEWL during 60 min, normalized to pre-treatment reference (100%)
Description: The present inventors have investigated the moisturizing potential of perfume ingredients. To perform this assessment they used a model called a skin replicating surface, and measured the transepidermal water loss (TEWL) before and after the deposit of a sample of the perfume ingredient. This is measure of the moisturizing activity of the perfume ingredient.
The moisturizing activity of a fragrance component may be calculated as follows. • a step of controlled deposition of a fragrance component upon an skin replicating surface, • a step of measurement of a quantity of evaporated water from the skin replicating surface or of remaining water on the skin replicating surface after the deposition of the fragrance component at different measurement times, • a step of reduction of the water evaporation rate calculation depending on the measured evaporated or remaining water quantities measured, • a step of moisturizing activity calculation as a function of the water evaporation rate measured.
The skin replicating surface comprising (i) a hydrogel membrane layer comprising a water permeable substrate supporting a biopolymer, and (ii) a stratum corneum mimic layer.
The hydrogel membrane composition should include a knitted cotton piece topped by a hydrogel containing biopolymer (gelatin) able to form a hydrogel with water and glycerol.
The stratum corneum mimic layer can be a Vitro-Corneum substrate (product of IMS inc.)
Before measurements, the hydrogel membrane and the Vitro-Corneum substrate should be separately hydrated in a hydration chamber and then, assembled. The Vitro-Corneum substrate is made of proteins and lipids and mimics the thickness, the visco-elasticity, the chemical reactivity and the surface properties of human stratum corneum. The hydrogel allows to keep the Vitro-Corneum substrate hydrated.
Hydrogel is prepared by mixing gelatin, glycerol and water at a water bath in the following composition. Preferably around 50% of the hydrogel is glycerol and around 5% is gelatin completed to 100% with water. This is added to a supporting surface and allowed to set.
Both part of the artificial skin model needs to be hydrated before being assembled. Hydrogel membranes and the Vitro-Corneum substrate (2×2 cm) are placed into an hydration chamber containing the glycerol/water wetting solution. Hydrogel membranes are hydrated and Vitro-Corneum substrates are hydrated. When the hydration is complete, the Vitro-Corneum substrate is deposited on the hydrogel. The final skin model is now ready for experiments.
The TEWL (Trans-Epidermal Water Loss) measurements were performed with a Vapometer and Moisturemeter, product of Delfin Technologies (Finland).
Hydrated artificial skin membrane is placed on the top of a Franz Cell, 50 μL of the product to be tested is applied on the membrane and spread manually with a finger protected by a glove. The Vapometer measures the water evaporation rate thanks to sensitive humidity sensors mounted in a cylindrical measurement chamber at the core of the device. During the measurement, the chamber is closed by the support and unaffected by ambient airflows. The water evaporation rate (g/m^2 h) is calculated from the increase of relative humidity in function of time. Ambient temperature and humidity are recorded using an external room sensor.
For our TEWL measurement method, each experiment lasts one hour, and several measurements were taken at different time points during this period.
All the experiments were compared to a reference system: hydrated artificial skin model, pre-treatment, without raw material application. […] For each experiment, the evaporation rate was measured before the ingredient application and the TEWL results were normalized by its value. With the normalization, the reference corresponds to 100% of water evaporation.

Compound	moisturizing (reduction of water evaporation rate / TEWL after deposit of the sample)	also measured
1-oxa-12-cyclohexadecen-2-one (a)+1-oxa-13-cyclohexadecen-2-one	suitable moisturizing potential	–
CC(=O)[C@]1(C)CC2=C(CCCC2(C)C)C[C@H]1C (racemic) [1-((2rs,3rs)-2,3,8,8-tetramethyl-1,2,3,4,5,6,7,8-octahydronaphthalen-2-yl)ethenone]	suitable moisturizing potential	–
CO[C@@]1(C)CC[C@@]23C[C@@H]1C(C)(C)[C@@H]2CC[C@H]3C (racemic) [(+−)-8-methoxycedrane]	have moisturizing effects; also recorded: suitable moisturizing potential	–
CC1/C=C/CCCCCCCCCCC(=O)C1 (racemic) [(+−)-(4e)-3-methyl-4-cyclopentadecen-1-one]	suitable moisturizing potential	–
C=CCCC(=O)C1=CCCC(C)(C)C1 [1-(5,5-dimethyl-1-cyclohexen-1-yl)-4-penten-1-one]	suitable moisturizing potential	–
C=C(C)C1CC=C(C)CC1 (stereo not shown) [1-methyl-4-(1-methylethenyl)-cyclohexene]	have moisturizing effects; also recorded: suitable moisturizing potential	–
CCC(=O)OCC(=O)O[C@@H](C)[C@@H]1CCCC(C)(C)C1 [2-{(1S)-1-[(1R)-3,3-dimethylcyclohexyl]ethoxy}-2-oxoethyl propionate]	have moisturizing effects	–
CC1(C)CCC[C@]2(C)[C@H]3CCO[C@]3(C)CC[C@@H]12 [(3ar,5as,9as,9br)-3a,6,6,9a-tetramethyldodecahydronaphtho[2,1-b]furan]	suitable moisturizing potential	–
CCC(=O)OCC(C)(C)O[C@@H](C)[C@@H]1CCCC(C)(C)C1 [(+)-2-{(1S)-1-[(1R)-3,3-dimethylcyclohexyl]ethoxy}-2-methylpropyl propionate]	suitable moisturizing potential	–
CCCCC[C@@H]1C(=O)CCCC[C@H]1CC(=O)OC [(+)-methyl (1s)-trans-3-oxo-2-pentyl-1-cycloheptaneacetate]	suitable moisturizing potential	moisturizing (reduction of water evaporation rate / TEWL after deposit of the sample) (listed as Cycloheptaneacetic acid, 3-oxo-2-pentyl-): have moisturizing effects
CC(=O)OCc1ccccc1 [benzyl acetate]	suitable moisturizing potential	moisturizing (reduction of water evaporation rate / TEWL after deposit of the sample) (listed as Benzyl acetate): have moisturizing effects
O=C1CCCCCCCCCCCCCCO1 [oxacyclohexadecan-2-one]	suitable moisturizing potential	moisturizing (reduction of water evaporation rate / TEWL after deposit of the sample) (listed as Oxacyclohexadecan-2-one): have moisturizing effects
(3RS,3aRS,6SR,7aSR)-3,6-dimethylhexahydro-1-benzofuran-2(3H)-one (A)+(3RS,3aSR,6RS,7aRS)-3,6-dimethylhexahydro-1-benzofuran-2(3H)-one (B)	have moisturizing effects; also recorded: suitable moisturizing potential	–
